This passage reports Solubility and Water content results from patent US9765108B2 (SHILPA MEDICARE LIMITED, priority 2012, dated 2017).

The conditions of data set [1]: cited from earlier work.
The nature of data set [2]: Water content of lyophilized formulation / crystalline form. It is filed as physicochemical. Particulars: neat crystalline form as obtained after lyophilization, no bulking agent. As to the method:
The secondary drying phase is the final segment of the lyophilization cycle, where residual moisture is removed from a formulation's interstitial matrix by desorption with elevated temperatures and/or reduced pressures. The final moisture content of a lyophilized formulation, which can be measured by Karl Fischer or other methods, is important because if the solid cake contains too much residual moisture, the stability of the active can be compromised.
Chemical stability is tested for both example 1 & it's corresponding placebo formulation by storing the lyophilized vials under various conditions: 25° C. and 60% relative humidity (“A”); 40° C. and 75% relative humidity (“B”); and 60° (“C”); for one month. Impurity analyses are done before storage (“Initial”) and after storage, and are expressed as percentages of the label 5-azacytidine content.

Read-outs that look alike come from different tables or passages of the source.

With `Nc1ncn([C@@H]2O[C@H](CO)[C@@H](O)[C@H]2O)c(=O)n1` [5-azacytidine, 4-amino-1-β-D-ribofuranosyl-1,3,5-triazin-2(1H)-one], the Solubility result in data set [1] (5% Tween 80 in water) is on record as “sparingly soluble”; in data set [1] (5% dextrose in water), “sparingly soluble”; in data set [1] (N-methylpyrrolidone) it was “sparingly soluble”; in data set [1] (acetone), “insoluble”; in data set [1] (dimethylsulfoxide (DMSO)), “soluble”; in data set [1] (ethanol and water (50:50)), “slightly soluble”. Also, the Solubility result is “insoluble” in data set [1] (ethanol); “insoluble” in data set [1] (methyl ethyl ketone); “sparingly soluble” in data set [1] (normal saline); “slightly soluble” in data set [1] (polyethylene glycol); “slightly soluble” in data set [1] (propylene glycol); “sparingly soluble” in data set [1] (water saturated octanol). For the same compound, the Solubility result in data set [1] (water) is given as “sparingly soluble”.
Compound `Nc1ncn([C@@H]2O[C@H](CO)[C@@H](O)[C@H]2O)c(=O)n1` [Crystalline 5-Azacytidine Form-SA-1, 5-Azacytidine] showed a Water content in data set [2] of 0.6 % w/w.
On the same count and under the same terms, to `Nc1ncn([C@@H]2O[C@H](CO)[C@@H](O)[C@H]2O)c(=O)n1` [Crystalline 5-Azacytidine Form-SA-2, 5-Azacytidine] belongs 0.7 % w/w.
